Key:
[1] = system: A. fumigatus (RCMB 002008); assay: Minimum Inhibitory Concentration (MIC); type: cell-based
Procedure: (§1) Method S2: Antimi crobial studies a) Tested pathogenic microbes
(§2) The antibacterial a ctivity of the studied ligands and their Cu(II) complexes were evaluated against two Gram positive bacteria ((S. aureus (ATCC 25923) and B. […]
(§3) 0.5). In case of fungi A. fumigatus (RCMB 002008) and C. albicans (RCMB 005003(1) ATCC 10231), the used medium in antagonistic activity against tested fungi is Potato Dextrose Agar, where Fluconazole was used standard antifungal agent. […]
(§4) c) Minimum Inhibitory Concentration (MIC)
(§5) Different dilutions of the compounds are inoculat ed with tested pathogenic microbes.
(§6) After incubation period of 96 well microplate, the results are meas ured using microplate reader. To determine at what level the MIC endpoint is established; subculture of test samples at different concentrati ons occurred in nutrient agar plates.

[2] = system: C. albicans (RCMB 005003(1) ATCC 10231); assay: Minimum Inhibitory Concentration (MIC); type: cell-based
Procedure: as §1, §2, §3, §4, §5, §6

For `CC(=NNc1nc(N2CCOCC2)nc(N2CCOCC2)n1)c1ccccc1[O-].CC(=O)[O-].[Cu+2]` [Complex 2, [Cu(DMOT)(CH3COO)]], the MIC [1] was 625 µg/mL and the MIC [2] was 5000 µg/mL.

— PMC9106035, “Synthesis, X-ray Structure and Biological Studies of New Self-Assembled Cu(II) Complexes Derived from s-Triazine Schiff Base Ligand” (Molecules, 2022)
